These results are taken from the RepoRT retention time repository (doi:10.1021/acs.analchem.2c02893).

Conditions in all cases: stereoisomer not certain
Data set [1] is described as follows: RP, Thermo Scientific Acclaim RSLC 120 C18, 100 × 2.1 mm, 2.2 µm, 30 °C, 0.2 mL/min, estimated dead time 1.1 min; A: water + 0.1% formic acid, pH 2.6; B: methanol + 0.1% formic acid, pH 2.6; gradient (min/%B) 0/10 4/50 17/95 25/95 25.1/10 30/10.
Data set [2] is described as follows: RP, Waters ACQUITY UPLC BEH C18, 100 × 2.1 mm, 1.7 µm, 35 °C, 0.35 mL/min, estimated dead time 0.63 min; A: water + 0.01% formic acid + 5 mM ammonium formate, pH 3.71; B: acetonitrile + 0.01% formic acid, pH 3.71; gradient (min/%B) 0/5 0.5/5 16/95 16.1/99 19/99 19.1/5 21/5.
Data set [3] is described as follows: RP, Waters ACQUITY UPLC BEH C18, 100 × 2.1 mm, 1.7 µm, 30 °C, 0.35 mL/min, estimated dead time 0.63 min; A: water + 0.01% formic acid + 5 mM ammonium formate, pH 3.71; B: acetonitrile + 0.01% formic acid, pH 3.71; gradient (min/%B) 0/10 3/10 22/100 30/100 30.1/10 40/10.
The nature of data set [4]: RP, Thermo Scientific Acclaim RSLC 120 C18, 100 × 2.1 mm, 2.2 µm, 30 °C, 0.2 mL/min, estimated dead time 1.1 min; A: 90% water + 10% methanol + 0.01% formic acid + 5 mM ammonium formate, pH 3.61; B: methanol + 0.01% formic acid + 5 mM ammonium formate, pH 3.61; gradient (min/%B) 0/1 1/1 2/39 13/99.9 15/99.9 15.1/1 20.1/1.

Turning to `CC12CCC(O)CC1CCC1C2C(=O)CC2(C)C1CCC2(O)C(=O)CO` (stereo not given), the LC retention time in data set [1] is 11.2 min; in data set [2], 7.37 min; in data set [3], 9.93 min; in data set [4], 9.21 min.
For `Nc1ncnc2c1ncn2C1OC(CO)C(O)C1O` (stereo not given) [Adenosine], the LC retention time is 2.13 min in data set [1], 1.27 min in data set [2], 1.31 min in data set [3] and 3.14 min in data set [4].
For `CC(C)(C)NCC(O)c1ccc(O)c(CO)c1` (stereo not given) [Albuterol/Salbutamol], the LC retention time is 2.71 min in data set [1], 1.92 min in data set [2] and 1.28 min in data set [3].
Consider `Nc1ncn[nH]1` [Amitrole], for which the LC retention time in data set [2] is 0.88 min; in data set [3], 0.91 min; in data set [4], 1.44 min.
Turning to `CC(N)Cc1ccccc1` (stereo not given) [Amphetamine], the LC retention time is 3.86 min in data set [1], 3.28 min in data set [2], 2.99 min in data set [3] and 4.16 min in data set [4].
Take `C1=CCC(c2cccnc2)NC1` (stereo not given) [Anatabine]: the LC retention time is 3.66 min in data set [1], 1.27 min in data set [2], 1.08 min in data set [3] and 2.68 min in data set [4].
Regarding `NCC(O)c1ccccc1` (stereo not given) [Apophedrin (Phenylethanolamine)], the LC retention time in data set [1] is 2.34 min; in data set [2] it was 1.65 min; in data set [3] it was 1.38 min.
On to `CCNc1nc(N)nc(Cl)n1` [Atrazine-desisopropyl], for which the LC retention time in data set [1] is 5.22 min; in data set [2], 3.58 min; in data set [3] it was 3.51 min; in data set [4] it was 4.75 min.
As for `CCNc1nc(Cl)nc(NC(C)C)n1` [Atrazine], the LC retention time in data set [1] was 9.72 min; in data set [2], 7.82 min; in data set [3], 10.3 min; in data set [4] it was 8.16 min.
For `CCC(C)C1OC2(C=CC1C)CC1CC(CC=C(C)C(OC3CC(OC)C(OC4CC(OC)C(O)C(C)O4)C(C)O3)C(C)C=CC=C3COC4C(O)C(C)=CC(C(=O)O1)C34O)O2` (stereo not given) [Avermectin], the figures for the LC retention time in data set [1], in data set [2] and in data set [3] were 18.7 min, 14.6 min and 18.8 min, respectively.
`COc1ccc(C(=O)c2ccccc2)c(O)c1` [Benzophenon 3 (=2-Hydroxy-4-methoxybenzophenon)]: the LC retention time in data set [1] is 13.8 min; in data set [2], 11 min; in data set [3] it was 14.5 min; in data set [4], 10.8 min.
Regarding `O=c1[nH]c2ccccc2s1` [Benzothiazole-2-OH], the results for the LC retention time in data set [1], in data set [2] and in data set [3] were 7.4 min, 5.76 min and 7.78 min, respectively.
Take `c1ccc2n[nH]nc2c1` [Benzotriazole (BTR)]: the LC retention time is 5.31 min in data set [1], 3.61 min in data set [2], 3.69 min in data set [3] and 4.76 min in data set [4].
For `CC(C)NCC(O)COc1ccc(COCCOC(C)C)cc1` (stereo not given) [Bisoprolol], in that order: 5.8 min, 5.91 min, 8.09 min and 5.91 min.
As for `CCCCOc1ccc(CC(=O)NO)cc1` [Bufexamac], the LC retention time in data set [1] was 9.38 min; in data set [2] it was 7.21 min; in data set [3], 9.74 min; in data set [4], 7.83 min.
Regarding `CNC(=O)ON=C(C)C(C)SC` (stereo not given) [Butocarboxim], the LC retention time was 6.82 min in data set [1], 5.7 min in data set [2], 7.64 min in data set [3] and 6.07 min in data set [4].
For `Cn1c(=O)c2c(ncn2C)n(C)c1=O` [Caffeine], in that order: 4.69 min, 3.08 min, 2.43 min and 4.23 min.
For `CCN1CCN(C(=O)NC(C(=O)NC2C(=O)N3C(C(=O)O)=C(CSc4nnnn4C)CSC23)c2ccc(O)cc2)C(=O)C1=O` (stereo not given) [Cefoperazone], in that order: 5.37 min, 4.19 min, 6.08 min and 4.36 min.
For `CCN(CC)C(=O)Nc1ccc(OCC(O)CNC(C)(C)C)c(C(C)=O)c1` (stereo not given) [Celiprolol], in that order: 5.29 min, 5.34 min, 7.46 min and 5.24 min.
In the case of `C[N+](C)(C)CCCl` [Chlormequate], the LC retention time in data set [2] and in data set [3] was 0.84 min in each case.
For `CC(C)NCC(O)c1ccc(N)c(C#N)c1` (stereo not given) [Cimaterol], the LC retention time in data set [1] is 2.51 min; in data set [2], 2.1 min; in data set [3], 1.48 min; in data set [4], 2.99 min.
For `CN=C(NC#N)NCCSCc1nc[nH]c1C` [Cimetidine], in that order: 2.88 min, 2.11 min, 1.54 min and 3.24 min.
As to `O=C(O)c1cn(C2CC2)c2cc(N3CCNCC3)c(F)cc2c1=O` [Ciprofloxacin], the LC retention time in data set [1] was 4.46 min; in data set [2] it was 4.13 min; in data set [3], 5.54 min; in data set [4], 4.42 min.
For `COc1cc2c(c(OC)c1OC)-c1ccc(OC)c(=O)cc1C(NC(C)=O)CC2` (stereo not given) [Colchicine], in that order: 7.17 min, 5.99 min, 8.29 min and 6.43 min.
Take `CN1C(=O)CCC1c1cccnc1` (stereo not given) [Cotinine]: the LC retention time was 1.71 min in data set [1], 2.06 min in data set [2], 1.41 min in data set [3] and 3.75 min in data set [4].
For `Nc1nc(N)nc(NC2CC2)n1` [Cyromazine], in that order: 2.06 min, 1.23 min, 1.06 min and 2.78 min.
On to `C#CCN(C)C(C)Cc1ccccc1` (stereo not given) [Deprenyl/Selegiline], for which the LC retention time in data set [1] was 4.32 min; in data set [2], 4.53 min; in data set [3], 5.98 min.
As for `CCC(C)C1OC2(C=CC1C)CC1CC(CC=C(C)C(OC3CC(OC)C(OC4CC(OC)C(NC)C(C)O4)C(C)O3)C(C)C=CC=C3COC4C(O)C(C)=CC(C(=O)O1)C34O)O2` (stereo not given) [Emamectin], the LC retention time is 14.3 min in data set [1], 12.6 min in data set [2] and 16.3 min in data set [3].
As for `CCNC(C)Cc1cccc(C(F)(F)F)c1` (stereo not given) [Fenfluramine], the LC retention time in data set [1] is 5.84 min; in data set [2], 6.21 min; in data set [3], 8.46 min.
Take `NC(=O)N=C(N)N` [Guanylurea]: the LC retention time in data set [2] is 0.86 min; in data set [3], 0.83 min.
Take `NCCc1cnc[nH]1` [Histamine]: the LC retention time in data set [2] is 0.94 min; in data set [3], 0.99 min; in data set [4] it was 1.58 min.
Consider `CCC(C)C1OC2(CCC1C)CC1CC(CC=C(C)C(OC3CC(OC)C(OC4CC(OC)C(O)C(C)O4)C(C)O3)C(C)C=CC=C3COC4C(O)C(C)=CC(C(=O)O1)C34O)O2` (stereo not given) [Ivermectin], for which the LC retention time in data set [1] was 20.4 min; in data set [2] it was 17 min; in data set [3], 21.1 min.
Turning to `c1cc2c(cc1CN1CCNCC1)OCO2` [Piperazine-1-Piperonyl], the LC retention time was 2.56 min in data set [1], 3.2 min in data set [2] and 2.63 min in data set [3].
As to `CC12CCC(=O)C=C1CCC1C2CCC2(C)C(O)CCC12` (stereo not given) [Testosterone], the LC retention time was 12.2 min in data set [1], 8.76 min in data set [2] and 11.6 min in data set [3].
`COP(=O)(OC)C(O)C(Cl)(Cl)Cl` (stereo not given) [Trichlorfon]: the LC retention time in data set [1] is 5.86 min; in data set [2], 4.26 min; in data set [3], 5.41 min.
Take `CN(C)CCc1c[nH]c2ccc(CC3COC(=O)N3)cc12` (stereo not given) [Zolmitriptan]: the LC retention time in data set [4] was 3.61 min.
Same read-out and setting: the value for `Cc1ccc(-c2nc3ccc(C)cn3c2CC(=O)N(C)C)cc1` [Zolpidem] was 5.8 min; that for `NS(=O)(=O)Cc1noc2ccccc12` [Zonisamide] was 4.53 min; that for `CN1CCN(C(=O)OC2c3nccnc3C(=O)N2c2ccc(Cl)cn2)CC1` (stereo not given) [Zopiclone] was 4.89 min.
Regarding `CN(C)CCOC1=Cc2ccccc2Sc2ccc(Cl)cc21` [Zotepine], the LC retention time in data set [4] was 9.04 min.
As to `CCC(C)(NC(=O)c1cc(Cl)c(C)c(Cl)c1)C(=O)CCl` (stereo not given) [Zoxamide], the LC retention time in data set [4] is 11.1 min.
As for `CCCc1nn(C)c2c(=S)nc(-c3cc(C(=S)N4CCN(C)CC4)ccc3OCC)[nH]c12` [carbodenafil-Dithio-desmethyl], in data set [4], the LC retention time is 11.5 min.
